Reference: patent publication US20110152166A1, “METHOD OF MODULATION OF PROTEIN PHOSPHORYLATION-DEPENDENT CONFORMATIONAL TRANSITIONS WITH LOW MOLECULAR WEIGHT COMPOUNDS” (priority 2006, published 2011)
Substitutions are numbered along the chain they refer to. Where two headings read alike, the source gives them in different places. Square brackets hold non-standard residues; d marks the D form. Ends that are not written are not given here. pS = N[C@@H](COP(=O)(O)O)C(=O)O

Legend:
[1] = biological target: T1, GST-PDK1 [Thr148Val] (Homo sapiens, UniProt O15530, T148V); experiment: PDK1 activity assay with T308tide; assay type: biochemical; details: for activation of PDK1 mutant (in words): PDK1[Thr148Val], 20 μM
T1 construct: different protein constructs, comprising the full length protein or the catalytic domain alone; made in house; host or cells: HEK293 cells (pEBG-2T-PDK1 mutant)
T1 sequence (O15530 1-556 T148V): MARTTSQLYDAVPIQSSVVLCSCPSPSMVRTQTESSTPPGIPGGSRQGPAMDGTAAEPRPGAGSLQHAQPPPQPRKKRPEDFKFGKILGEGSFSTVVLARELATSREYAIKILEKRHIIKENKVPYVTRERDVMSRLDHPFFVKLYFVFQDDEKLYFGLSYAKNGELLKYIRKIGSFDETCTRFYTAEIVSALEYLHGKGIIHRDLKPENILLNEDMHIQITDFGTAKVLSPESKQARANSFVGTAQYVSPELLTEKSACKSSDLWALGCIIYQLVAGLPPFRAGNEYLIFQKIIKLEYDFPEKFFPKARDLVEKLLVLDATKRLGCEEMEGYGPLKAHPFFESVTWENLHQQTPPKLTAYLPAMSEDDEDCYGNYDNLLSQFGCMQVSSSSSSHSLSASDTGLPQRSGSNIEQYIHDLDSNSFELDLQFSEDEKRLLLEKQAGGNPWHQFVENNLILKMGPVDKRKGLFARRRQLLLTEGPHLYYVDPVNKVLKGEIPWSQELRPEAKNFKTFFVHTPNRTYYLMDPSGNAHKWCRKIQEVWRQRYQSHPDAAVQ
Procedure: (§1) Protein kinase activity tests were performed essentially as previously described (Balendran et al., 2000; Biondi et al., 2000; Biondi et al., 2001). Substrates used were either MBP (for PKCζ or polypeptides (Crosstide for PKB, S6K, SGK and PRK2; T308tide for PDK1, and Kemptide for PKA). PKA (Sigma) was measured in the presence of 100 μM cAMP. Alternatively, assays were performed in a 96 well format, aliquots spotted on p81 phosphocellulose papers (Whatmann), washed in 0.01% phosphoric acid, dried, and then exposed and analysed using Phospholmager technology (Storm, Molecular Dynamics). Activity measurements were performed in duplicates with less than 10% difference between duplicate pairs. Experiments were repeated at least twice, although most of the experiments were repeated multiple times, with similar results.
(§2) PDK1 activity assay was performed in a 20 μl mix containing 50 mM Tris-HCl pH 7.5, 0.05 mg/ml BSA, 0.1% β-mercaptoethanol, 10 mM MgCl2, 100 μM [γ^32P]ATP (5-50 cpm/pmol), 0.003% Brij, 150 ng PDK1, and T308tide (from 0.05 to 1 mM). PDK1 specific activity was approximately 5 U/mg (when measured at 1 mM T308tide). The effect of small compounds on PDK1 was repeated with proteins from different purification batches and with different protein constructs, comprising the full length protein or the catalytic domain alone, with similar results. […] This variability may be due to the PIFtide/compound-stimulated autophosphorylation of the activation loop in certain preparations having less than a 1:1 molar phosphorylation stoichiometry at this site.
(§3) PDK1 activity was measured at room temperature using a polypeptide substrate derived from the activation loop phosphorylation site of PKB, T308tide (0.1 mM). […] GST-PDK1 wt was purified in numerous occasions and the maximal activation level of different batches varied between 3 and 8 fold activation with PIFtide or compound 1. Variations in the basal activity and fold activation were also observed in mutants. Therefore, comparisons in the maximal level of activation between mutants should be performed with care. The data shown are from an experiment where PIFtide concentrations were tested between 50 nM and 20 µM and compound 1 concentrations were between 5 μM and 200 μM, in triplicate. AC50 and max. activity were estimated by fitting the data to a hyperbola using Kaleidagraph software. One Unit of PDK1 activity was defined as the amount required to catalyse the phosphorylation of 1 nmol of the T308tide in 1 min.

[2] = biological target: T2, GST-PDK1 [Val127Leu] (Homo sapiens, UniProt O15530, V127L); experiment: PDK1 activity assay with T308tide; assay type: biochemical; details: for activation of PDK1 mutant (in words): PDK1[Val127Leu]
T2 construct: different protein constructs, comprising the full length protein or the catalytic domain alone; made in house; host or cells: HEK293 cells (pEBG-2T-PDK1 mutant)
T2 sequence (O15530 1-556 V127L): T1 sequence (O15530 1-556 T148V) with V127L, V148T
Procedure: as §1, §2, §3

| activation of PDK1 mutant (in words) [1] | activation of PDK1 mutant (in words) [2] | AC50 ([1]; GST-PDK1 [Thr148Val]) | Max. activity ([2]; GST-PDK1 [Val127Leu]) | AC50 ([2]; GST-PDK1 [Val127Leu], read-out: AC50) | Max. activity ([1]; GST-PDK1 [Thr148Val]) | AC50 ([1]; GST-PDK1 [Thr148Val], read-out: AC50) | AC50 ([2]; GST-PDK1 [Val127Leu]) | Compound |
| --- | --- | --- | --- | --- | --- | --- | --- | --- |
| completely abolished | fully activated |  |  |  |  |  |  | P-HM-RSK: phosphorylated HM polypeptide of RSK: KGAGGGGFRGFS(P)FVA (KGAGGGGFRGF[pS]FVA) |
|  | fully activated | INH | 0.99 ± 0.08 U/mg | 0.12 ± 0.03 µM |  |  |  | REPRILSEEEQEMFRDFDYIADWC [PIFtide, reference compound] |
| still activated |  |  |  |  | 2.44 ± 0.26 U/mg | 102 ± 19 µM | No Effect | O=C(O)CSC(CC(=O)c1ccc(Cl)cc1)c1ccccc1 (stereo not shown) [Compound 1] |
